Experimental data published in patent US20230278997A1, “BICYCLO[1.1.1]PENTANE COMPOUNDS FOR THE TREATMENT AND PROPHYLAXIS OF HEPATITIS B VIRUS INFECTION” (Hoffmann-La Roche Inc., priority 2020, published 2023).
pIC50: −log10 of the molar value. Like-named read-outs stand apart in the source and are kept apart here.

Legend:
[1] = test system: HBsAg; test: microbe, parasite or virus in culture; format: cell-based, HBV; details: Hepatitis B virus, read-out: HBsAg IC50
[2] = Human microsome stability assay; format: in vitro ADME; details: 1 μM compound, 0.5 mg/mL microsomal protein, 37° C.; detection limit 6.15 mL/min/kg
Experimental: Human Microsome Stability Assay The human microsomal stability assay is used for early assessment of metabolic stability of a test compound in human liver microsomes. Human liver microsomes (Cat. […] The reactions were initiated by adding NADPH regenerating system. […] Following precipitation and centrifugation, the amount of compound remaining in the samples were determined by LC-MS/MS. Controls of no NADPH regenerating system at zero and 30 minutes were also prepared and analyzed.

[3] = test system: HBeAg; test: microbe, parasite or virus in culture; format: cell-based, HBV; details: Hepatitis B virus, read-out: HBeAg IC50
[4] = test system: primary human hepatocyte (PHH); test: Cytotoxicity in PHH natural infection assay (Cell Counting Kit-8); format: cell-based; details: therapeutic index; CC50 by CCK8 in PHH over HBsAg IC50
Experimental: Detailed procedures regarding primary human hepatocyte (PHH) HBV natural infection assay are described as below. One tube of frozen PHH (10 million cells) was thawed in 37° C. water bath and then transferred to 20 mL of PHH thawing medium (Sigma, InVitroGRO HT Medium, Cat. 503319) with gently mixing. The cells were then centrifuged at […] for 5 min, the supernatant was discarded and the tube was refilled with 25 mL of PHH plating medium (Sigma, InVitroGRO CP Medium, Cat. 503317). The tube was shaken very gently to re-suspend all cells, and then 50 μl of cells were transferred to each well of a 384-well collagen I coated plate with appropriate liquid handling equipment, e.g. Integra VIAFLO384 or Agilent Bravo. The cells were then cultured for 24 hours in a cell incubator. For HBV infection, after PHH attachment on the culture plate, the plating medium was removed and replenished with PHH culture medium containing HBV virus. The PHH culture medium was prepared with Dulbecco's Modified Eagle Medium (DMEM)/F12 (1:1 in volume ratio) containing 10% fetal bovine serum (Gibco, Cat.10099141), 5 ng/mL human epidermal growth factor (Gibco, Cat.PHG031 IL), 20 ng/mL dexamethasone (Sigma, Cat.D4902-100 mg), 250 ng/mL human recombinant insulin (Gibco, Cat.41400045) and 100 U/mL penicillin. HBV virus at 200 genome equivalent (GE) per cell with 4% PEG8000 (Sigma, Cat.P1458) containing culture medium were added to the PHH culture medium for infection. The cells were then cultured for 24 hours in cell incubator. Then the cell culture supernatant was removed. The HBV-infected PHH were cultured with sandwich culture method with PHH culture medium containing 1% DMSO and 0.25 mg/mL matrix gel for 72 hours. The supernatant was then refreshed with PHH culture medium containing different concentrations of testing compounds for two times with 72-hour interval. At the end of treatment, the supernatant was collected for viral markers measurements, including HBsAg, HBeAg, HBV DNA and cytotoxicity. HBsAg and HBeAg were detected using alphalisa method using their specific antibodies. For HBV DNA detection, HBV DNA Quantitative Fluorescence Diagnostic Kit (Sansure Biotech Inc.) was used following the manufacture's protocol. Cytotoxicity was determined using Cell Counting Kit-8 (CCK8, Dojindo Molecular Technologies, Inc.).

[5] = Single dose pharmacokinetics (PK) study in male C57BL/6 mouse; format: in vivo; details: for clearance / half-life / Vd / AUC(0-t): male; for clearance / half-life / Vd: C57BL/6, plasma; for clearance / half-life / Vd / F: mouse; for Vd: read-out: VSS; for AUC(0-t): C57BL/6, mouse plasma; for F: dose normalized AUC0-last
Experimental: Single Dose Pharmacokinetics (PK) Study in Male C57BL/6 Mouse Pharmacokinetic properties of selected compounds were assessed by single dose PK studies in Male C57BL/6 mouse (vendor: Beijing Vital River Laboratory Animal Technology Co., Ltd). Briefly, two groups of animals were administered a single dose of respective compound intravenously (IV, bolus) at 1 mg/kg or orally (PO, by gavage) at 10 mg/kg or 30 mg/kg. […] After centrifugation, the resulting plasma was transferred to clean tubes for bioanalysis with LC/MS/MS. The pharmacokinetic parameters were calculated using non-compartmental analysis. The volume of distribution (Vss), half-life (T1/2) and clearance (CL) were obtained based on the plasma concentration-time curve after IV dose. The peak concentration (Cmax) was recorded directly from experimental observations after PO dose. The area under the plasma concentration-time curve (AUC0-last and AUC0-24 h) was calculated using the linear trapezoidal rule up to the last detectable concentration. The bioavailability (F) was calculated based on the dose normalized AUC0-last after IV and PO dose. The Vss of a drug represents the degree to which a drug is distributed in body tissue rather than the plasma. Vss is directly proportional with the amount of drug distributed into tissue. A higher Vss indicates a greater amount of tissue distribution.

[6] = IV bolus 1 mg/kg, read-out: IV AUC0-24h

SMILES | pIC50 [1] | Clearance of human microsome [2] [mL/min/kg] | pIC50 [3] | TI (CC50/IC50 HBsAg) [4] | clearance ([5]; IV bolus 1 mg/kg) [mL/min/kg] | half-life ([5]; IV bolus 1 mg/kg) [h] | Vd ([5]; IV bolus 1 mg/kg) [L/kg] | AUC(0-t) [5, 6] [ng·h/mL] | AUC(0-t) ([5]; PO 10 mg/kg single dose, read-out: PO AUC0-24h) [ng·h/mL] | F ([5]; PO 10 mg/kg vs IV 1 mg/kg) [%] | AUC(0-t) ([5]; PO 30 mg/kg single dose, read-out: PO AUC0-24h) [ng·h/mL] | F ([5]; PO 30 mg/kg vs IV) [%]
CS(=O)(=O)C1(c2nsc(C(=O)NC34CC(c5noc(-c6ccc(Cl)cc6)n5)(C3)C4)n2)CC1 [Example 41, N-[3-[5-(4-chlorophenyl)-1,2,4-oxadiazol-3-yl]-1-bicyclo[1.1.1]pentanyl]-3-(1-methylsulfonylcyclopropyl)-1,2,4-thiadiazole-5-carboxamide] | 6.89 | 14.14 | 7.10 | 65.54 | 0.11 | 67.3 | 0.62 | 34000 | 59700 | 18 | – | –
CS(=O)(=O)C1(c2ccc(C(=O)NC34CC(c5noc(-c6ccc(Cl)cc6)n5)(C3)C4)o2)CC1 [Example 40, N-[3-[5-(4-chlorophenyl)-1,2,4-oxadiazol-3-yl]-1-bicyclo[1.1.1]pentanyl]-5-(1-methylsulfonylcyclopropyl)furan-2-carboxamide] | 6.85 | ≤6.15 | 7.00 | 46.00 | 0.85 | 12 | 0.83 | 14900 | – | – | 80800 | 18
CS(=O)(=O)C1(c2ncc(C(=O)NC34CC(c5nc(-c6ccc(Cl)cc6)cs5)(C3)C4)o2)CC1 [Example 6, N-[3-[4-(4-chlorophenyl)thiazol-2-yl]-1-bicyclo[1.1.1]pentanyl]-2-(1-methylsulfonylcyclopropyl)oxazole-5-carboxamide] | 7.10 | ≤6.15 | 7.30 | 81.63 | – | – | – | – | – | – | – | –
CS(=O)(=O)C1(c2ccc(C(=O)NC34CC(c5nc(-c6ccc(Cl)c(Cl)c6)cs5)(C3)C4)o2)CC1 [Example 8, N-[3-[4-(3,4-dichlorophenyl)thiazol-2-yl]-1-bicyclo[1.1.1]pentanyl]-5-(1-methylsulfonylcyclopropyl)furan-2-carboxamide] | 6.80 | ≤6.15 | 6.96 | 16.69 | – | – | – | – | – | – | – | –
CS(=O)(=O)C1(c2ccc(C(=O)NC34CC(c5nc(-c6ccccc6Cl)cs5)(C3)C4)o2)CC1 [Example 3, N-[3-[4-(2-chlorophenyl)thiazol-2-yl]-1-bicyclo[1.1.1]pentanyl]-5-(1-methylsulfonylcyclopropyl)furan-2-carboxamide] | 6.17 | ≤6.15 | 6.30 | 8.85 | – | – | – | – | – | – | – | –
CS(=O)(=O)C1(c2ccc(C(=O)NC34CC(c5nc(-c6ccc(Cl)cn6)cs5)(C3)C4)o2)CC1 [Example 10, N-[3-[4-(5-chloro-2-pyridyl)thiazol-2-yl]-1-bicyclo[1.1.1]pentanyl]-5-(1-methylsulfonylcyclopropyl)furan-2-carboxamide] | 6.55 | ≤6.15 | 6.70 | 31.11 | – | – | – | – | – | – | – | –
CS(=O)(=O)C1(c2ccc(C(=O)NC34CC(c5nnn(-c6ccc(Cl)cc6)n5)(C3)C4)o2)CC1 [Example 44, N-[3-[2-(4-chlorophenyl)tetrazol-5-yl]-1-bicyclo[1.1.1]pentanyl]-5-(1-methylsulfonylcyclopropyl)furan-2-carboxamide] | 6.46 | ≤6.15 | 6.57 | 12.20 | – | – | – | – | – | – | – | –
CS(=O)(=O)C1(c2nsc(C(=O)NC34CC(c5nc(-c6cccc(Cl)c6)cs5)(C3)C4)n2)CC1 [Example 4, N-[3-[4-(3-chlorophenyl)thiazol-2-yl]-1-bicyclo[1.1.1]pentanyl]-3-(1-methylsulfonylcyclopropyl)-1,2,4-thiadiazole-5-carboxamide] | 6.77 | ≤6.15 | 6.92 | 29.65 | – | – | – | – | – | – | – | –
CS(=O)(=O)Cc1nsc(C(=O)NC23CC(c4nc(-c5ccc(Cl)cc5)no4)(C2)C3)n1 [Example 33, N-[3-[3-(4-chlorophenyl)-1,2,4-oxadiazol-5-yl]-1-bicyclo[1.1.1]pentanyl]-3-(methylsulfonylmethyl)-1,2,4-thiadiazole-5-carboxamide] | 6.36 | ≤6.15 | 6.43 | >22.73 | – | – | – | – | – | – | – | –
CS(=O)(=O)C1(c2ccc(C(=O)NC34CC(c5csc(-c6ccc(Cl)cc6)n5)(C3)C4)o2)CC1 [Example 27, N-[3-[2-(4-chlorophenyl)thiazol-4-yl]-1-bicyclo[1.1.1]pentanyl]-5-(1-methylsulfonylcyclopropyl)furan-2-carboxamide] | 6.89 | ≤6.15 | 7.05 | 39.46 | – | – | – | – | – | – | – | –
CS(=O)(=O)C1(c2ccc(C(=O)NC34CC(c5csc(-c6ccccc6)n5)(C3)C4)o2)CC1 [Example 26, 5-(1-methylsulfonylcyclopropyl)-N-[3-(2-phenylthiazol-4-yl)-1-bicyclo[1.1.1]pentanyl]furan-2-carboxamide] | 6.11 | ≤6.15 | 6.28 | 8.91 | – | – | – | – | – | – | – | –
CS(=O)(=O)C1(c2nsc(C(=O)NC34CC(c5nc(-c6ccc(F)cc6)no5)(C3)C4)n2)CC1 [Example 35, N-[3-[3-(4-fluorophenyl)-1,2,4-oxadiazol-5-yl]-1-bicyclo[1.1.1]pentanyl]-3-(1-methylsulfonylcyclopropyl)-1,2,4-thiadiazole-5-carboxamide] | 7.30 | ≤6.15 | 7.40 | 79.80 | – | – | – | – | – | – | – | –
CS(=O)(=O)C1(c2ccc(C(=O)NC34CC(c5ccn(-c6ccc(Cl)cc6)n5)(C3)C4)o2)CC1 [Example 42, N-[3-[1-(4-chlorophenyl)pyrazol-3-yl]-1-bicyclo[1.1.1]pentanyl]-5-(1-methylsulfonylcyclopropyl)furan-2-carboxamide] | 6.23 | 8.21 | 6.47 | 13.39 | – | – | – | – | – | – | – | –
CS(=O)(=O)C1(c2ccc(C(=O)NC34CC(c5nc(-c6ccc(Cl)cc6)ns5)(C3)C4)o2)CC1 [Example 18, N-[3-[3-(4-chlorophenyl)-1,2,4-thiadiazol-5-yl]-1-bicyclo[1.1.1]pentanyl]-5-(1-methylsulfonylcyclopropyl)furan-2-carboxamide] | 6.72 | 8.8 | 6.92 | 39.05 | – | – | – | – | – | – | – | –
